Data on eight compounds can be found in PubChem BioAssay (NCI).

Some test systems named below: A549 NSCLC; NCI-H226 lung; M14 melanoma; K-562 leukemia; TK-10 renal; A498 renal; SF-295 CNS; RXF 393 renal; NCI-H460 lung; UACC-62 melanoma.
Holding throughout (assay): NCI-60 cell line screen, 48 h

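Method: 48-hour compound exposure of cells in 96-well plates, five concentrations, linear interpolation of endpoints. GI50: concentration for 50% inhibition of growth. The concentration for full growth arrest is given as TGI.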

On to `Cc1ccc(S(=O)(=O)Nc2ccccc2C=O)cc1`, for which the TGI was over 100 µM in the test with A549 NSCLC; 41.5 µM in the test on NCI-H226 lung; 54.7 µM in the test with M14 melanoma; 60.8 µM in the test with K-562 leukemia; 52.4 µM in the test on TK-10 renal; 92.2 µM in the test on A498 renal. Also, the TGI in the test on SF-295 CNS is 85.6 µM; in the test on RXF 393 renal, over 100 µM; with NCI-H460 lung, 47 µM; in the test on UACC-62 melanoma it was 27 µM.
Regarding `CCN(CC)CCC(CNc1ccnc2cc(Cl)ccc12)c1ccc(Cl)cc1` (stereo not given), the GI50 in the test on A549 NSCLC was 1.64 µM; with NCI-H226 lung it was 2.46 µM; with M14 melanoma, 0.211 µM; in the test with K-562 leukemia, 0.312 µM; with TK-10 renal, 0.436 µM; in the test on A498 renal it was 1.21 µM. Further, the GI50 in the test on SF-295 CNS was 1.02 µM; in the test with RXF 393 renal, 1.04 µM; with NCI-H460 lung it was 2.03 µM; with UACC-62 melanoma, 1.18 µM. The TGI worked out at 3.96 µM in the test with A549 NSCLC; 8.19 µM in the test on NCI-H226 lung; 0.47 µM in the test on M14 melanoma; 1.16 µM with K-562 leukemia; 1.63 µM in the test with TK-10 renal; 2.76 µM in the test with A498 renal. Moreover, the TGI in the test with SF-295 CNS worked out at 2.64 µM; with RXF 393 renal it was 2.32 µM; in the test on NCI-H460 lung, 11.1 µM; in the test on UACC-62 melanoma, 2.69 µM.
For `COc1cc(-c2oc(=O)ccc2C#Cc2ccccn2)cc(OC)c1OC`, the GI50 in the test on A549 NSCLC is 4.15 µM; with NCI-H226 lung it was 7.76 µM; with M14 melanoma, 2.74 µM; in the test on K-562 leukemia, 0.646 µM; in the test on TK-10 renal it was 4.98 µM; with A498 renal, 3.81 µM. The GI50 with SF-295 CNS was 0.224 µM; with RXF 393 renal, 0.273 µM; in the test with NCI-H460 lung it was 2.6 µM; in the test with UACC-62 melanoma, 1.82 µM. Also, the TGI in the test on A549 NSCLC was over 100 µM; in the test with NCI-H226 lung, over 100 µM; in the test on M14 melanoma it was over 32.4 µM; with K-562 leukemia it was over 100 µM; in the test on TK-10 renal, over 100 µM; with A498 renal, over 48.3 µM. Further, the TGI in the test with SF-295 CNS was 2.01 µM; with RXF 393 renal, 2.09 µM; in the test on NCI-H460 lung, over 54.2 µM; with UACC-62 melanoma it was over 20.1 µM.
For the compound `O=C(Nc1ccc(Br)cc1F)c1cc(F)ccc1O`, the GI50 in the test with A549 NSCLC was 1.69 µM; in the test on NCI-H226 lung, 0.67 µM; with M14 melanoma it was 0.514 µM; with K-562 leukemia, 0.445 µM; in the test on TK-10 renal it was 3.26 µM; in the test on A498 renal, 0.172 µM. For the same compound, the GI50 is 1.76 µM in the test with SF-295 CNS, 0.554 µM in the test with RXF 393 renal, 0.491 µM with NCI-H460 lung and 0.285 µM in the test on UACC-62 melanoma. The TGI in the test with A549 NSCLC is over 100 µM; with NCI-H226 lung, 3.46 µM; with M14 melanoma, 4.07 µM; in the test with K-562 leukemia, over 100 µM; with TK-10 renal it was 18 µM; with A498 renal it was 0.667 µM. The TGI in the test on SF-295 CNS amounted to 3.42 µM; in the test with RXF 393 renal, 3.1 µM; in the test on NCI-H460 lung, 9.75 µM; in the test on UACC-62 melanoma it was 1 µM.
With `CC(=O)CCn1ncc(Cl)c(Cl)c1=O`, the TGI in the test on A549 NSCLC was 44.6 µM; in the test with NCI-H226 lung, 31.7 µM; with M14 melanoma, 29.7 µM; in the test on K-562 leukemia, 18.5 µM; in the test on TK-10 renal it was over 100 µM; in the test on A498 renal it was 42.9 µM. The TGI with SF-295 CNS stood at 33.6 µM; in the test with RXF 393 renal it was 32.9 µM; in the test on NCI-H460 lung, 42.2 µM; in the test on UACC-62 melanoma it was 33.3 µM.
On to `Cc1ccc(SC2c3ccc(C)cc3Oc3nc(N)c(C#N)c(N)c32)cc1` (stereo not given), for which the GI50 in the test with A549 NSCLC was 4.9 µM; in the test with NCI-H226 lung, 1.77 µM; with M14 melanoma, 1.77 µM; in the test on K-562 leukemia, 2.79 µM; with TK-10 renal, 1.95 µM; with A498 renal, 2.72 µM. The GI50 in the test with SF-295 CNS was 6.77 µM; in the test on RXF 393 renal it was 1.81 µM; with NCI-H460 lung, 1.94 µM; with UACC-62 melanoma it was 1.61 µM. The TGI in the test on A549 NSCLC amounted to 17.3 µM; in the test on NCI-H226 lung it was 4 µM; in the test on M14 melanoma, 3.49 µM; in the test with K-562 leukemia, 12.4 µM; in the test with TK-10 renal it was 3.39 µM; with A498 renal it was 7.33 µM. Also, the TGI with SF-295 CNS was 19.5 µM; in the test with RXF 393 renal, 3.28 µM; with NCI-H460 lung it was 4.07 µM; in the test on UACC-62 melanoma, 3.13 µM.
For `N#Cc1c(N)nc(N2CCOCC2)c(C#N)c1-c1ccncc1`, the GI50 in the test on A549 NSCLC was over 100 µM; in the test with NCI-H226 lung it was 75.9 µM; in the test on M14 melanoma, over 100 µM; in the test with K-562 leukemia, over 100 µM; in the test with TK-10 renal, 72.4 µM; in the test on A498 renal, 18.6 µM. Further, the GI50 with SF-295 CNS was 44.3 µM; in the test with RXF 393 renal it was over 100 µM; in the test with NCI-H460 lung it was 98.1 µM; in the test with UACC-62 melanoma, 27 µM. Besides, the TGI with A549 NSCLC was over 100 µM; in the test on NCI-H226 lung, over 100 µM; in the test with M14 melanoma, over 100 µM; in the test on K-562 leukemia, over 100 µM; in the test on TK-10 renal it was over 100 µM; with A498 renal it was 66.1 µM. The TGI with SF-295 CNS, with RXF 393 renal, with NCI-H460 lung and in the test with UACC-62 melanoma was over 100 µM throughout.
As to `Nc1ccc([N+](=O)[O-])cc1N=C/C=C/c1ccccc1`, the GI50 is 21.9 µM in the test on A549 NSCLC; 27.8 µM in the test with NCI-H226 lung; 8.66 µM in the test on M14 melanoma; 5.43 µM with K-562 leukemia; 33.3 µM in the test on TK-10 renal; 15.1 µM with A498 renal. For the same compound, the GI50 in the test on SF-295 CNS is 21.7 µM; in the test with RXF 393 renal, 22.7 µM; in the test on NCI-H460 lung, 11.3 µM; with UACC-62 melanoma it was 11.9 µM. The TGI with A549 NSCLC is over 100 µM; in the test on NCI-H226 lung it was over 100 µM; with M14 melanoma, over 100 µM; with K-562 leukemia, over 100 µM; in the test on TK-10 renal, over 100 µM; in the test on A498 renal, 64.4 µM. In addition, the TGI in the test on SF-295 CNS was over 100 µM; in the test on RXF 393 renal, over 100 µM; in the test on NCI-H460 lung, 41.9 µM; in the test on UACC-62 melanoma, over 100 µM.
